Tested on: 695427-040-R-J1-PDC complex spheroid viability
Test: Anticancer human tumor 695427-040-R-J1-PDC patient-derived colon adenocarcinoma cell line growth inhibition [POLQ]
Conditions: for IC50: curve of first compound; for viability, T/C: stronger effect = lower value
How it was run: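 PDC + HUVEC + MSC complex spheroids; POLQ inhibitors ± partner drugs; top conc. at/near clinical Cmax, else 10 microM (SN-38 1 microM), half-log dilutions; 37 degrees C, 5% CO2.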

[1] = second compound 0.0316 µM, first compound 0.0316 µM
[2] = second compound 0.0316 µM, first compound 0.1 µM
[3] = second compound 0.0316 µM, first compound 0.316 µM
[4] = second compound 0.0316 µM, first compound 1 µM
[5] = second compound 0.0316 µM, first compound 3.16 µM
[6] = second compound 0.0316 µM, first compound 10 µM
[7] = second compound 0.1 µM, first compound 0.0316 µM
[8] = second compound 0.1 µM, first compound 0.1 µM
[9] = second compound 0.1 µM, first compound 0.316 µM
[10] = second compound 0.1 µM, first compound 1 µM
[11] = second compound 0.1 µM, first compound 3.16 µM
[12] = second compound 0.1 µM, first compound 10 µM
[13] = second compound 0.316 µM, first compound 0.0316 µM
[14] = second compound 0.316 µM, first compound 0.1 µM
[15] = second compound 0.316 µM, first compound 0.316 µM
[16] = second compound 0.316 µM, first compound 1 µM
[17] = second compound 0.316 µM, first compound 3.16 µM
[18] = second compound 0.316 µM, first compound 10 µM
[19] = second compound 1 µM, first compound 0.0316 µM
[20] = second compound 1 µM, first compound 0.1 µM
[21] = second compound 1 µM, first compound 0.316 µM
[22] = second compound 1 µM, first compound 1 µM
[23] = second compound 1 µM, first compound 3.16 µM
[24] = second compound 1 µM, first compound 10 µM
[25] = second compound 3.16 µM, first compound 0.0316 µM
[26] = second compound 3.16 µM, first compound 0.1 µM
[27] = second compound 3.16 µM, first compound 0.316 µM
[28] = second compound 3.16 µM, first compound 1 µM
[29] = second compound 3.16 µM, first compound 3.16 µM
[30] = second compound 3.16 µM, first compound 10 µM
[31] = second compound 10 µM, first compound 0.0316 µM
[32] = second compound 10 µM, first compound 0.1 µM
[33] = second compound 10 µM, first compound 0.316 µM
[34] = second compound 10 µM, first compound 1 µM
[35] = second compound 10 µM, first compound 3.16 µM
[36] = second compound 10 µM, first compound 10 µM
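Also: spheroids exposed to compounds for seven days.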
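For viability, T/C in this document: 100% = DMSO vehicle control viability.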

COc1cccc2c1C(=O)c1c(O)c3c(c(O)c1C2=O)CC(O)(C(=O)CO)CC3OC1CC(N)C(O)C(C)O1 (stereo unspecified) + Nc1ccc(C#CCN(C(=O)Cc2ncc(C(F)(F)F)cc2C(F)(F)F)c2ccc(F)cc2)nn1
IC50 (second compound 0.0316 µM): > 10 µM
IC50 (second compound 0.1 µM): > 10 µM
IC50 (second compound 0.316 µM): > 10 µM
IC50 (second compound 1 µM): > 10 µM
IC50 (second compound 3.16 µM): > 10 µM
IC50 (second compound 10 µM): 3.38 µM
viability, T/C [1]: 101%
viability, T/C [2]: 90.9%
viability, T/C [3]: 97.3%
viability, T/C [4]: 78.2%
viability, T/C [5]: 79.6%
viability, T/C [6]: 71%
viability, T/C [7]: 113%
viability, T/C [8]: 95%
viability, T/C [9]: 98.9%
viability, T/C [10]: 80%
viability, T/C [11]: 84.5%
viability, T/C [12]: 64.6%
viability, T/C [13]: 99.6%
viability, T/C [14]: 99.8%
viability, T/C [15]: 94.4%
viability, T/C [16]: 83.7%
viability, T/C [17]: 81.5%
viability, T/C [18]: 68.3%
viability, T/C [19]: 106%
viability, T/C [20]: 89.5%
viability, T/C [21]: 95.7%
viability, T/C [22]: 81.8%
viability, T/C [23]: 79.6%
viability, T/C [24]: 58.6%
viability, T/C [25]: 96.2%
viability, T/C [26]: 92%
viability, T/C [27]: 90.9%
viability, T/C [28]: 77.8%
viability, T/C [29]: 76.9%
viability, T/C [30]: 51.6%
viability, T/C [31]: 95.8%
viability, T/C [32]: 84.3%
viability, T/C [33]: 86.6%
viability, T/C [34]: 68.7%
viability, T/C [35]: 50.8%
viability, T/C [36]: 35.3%

C=CCn1c(=O)c2cnc(Nc3ccc(N4CCN(C)CC4)cc3)nc2n1-c1cccc(C(C)(C)O)n1 + Cc1cccc(N(C)C(=O)C2C(O)CCN2c2nc(C)cc(C(F)(F)F)c2C#N)c1
IC50 (second compound 0.0316 µM): > 1 µM
IC50 (second compound 0.1 µM): > 1 µM
IC50 (second compound 0.316 µM): > 1 µM
IC50 (second compound 1 µM): > 1 µM
IC50 (second compound 3.16 µM): > 1 µM
IC50 (second compound 10 µM): > 1 µM
viability, T/C (second compound 0.0316 µM, first compound 0.00316 µM): 100%
viability, T/C (second compound 0.0316 µM, first compound 0.01 µM): 99.4%
viability, T/C [1]: 101%
viability, T/C [2]: 92.6%
viability, T/C [3]: 94.3%
viability, T/C [4]: 83.6%
viability, T/C (second compound 0.1 µM, first compound 0.00316 µM): 115%
viability, T/C (second compound 0.1 µM, first compound 0.01 µM): 108%
viability, T/C [7]: 93.2%
viability, T/C [8]: 103%
viability, T/C [9]: 93.4%
viability, T/C [10]: 69.5%
viability, T/C (second compound 0.316 µM, first compound 0.00316 µM): 105%
viability, T/C (second compound 0.316 µM, first compound 0.01 µM): 121%
viability, T/C [13]: 95.5%
viability, T/C [14]: 92.5%
viability, T/C [15]: 107%
viability, T/C [16]: 90.1%
viability, T/C (second compound 1 µM, first compound 0.00316 µM): 109%
viability, T/C (second compound 1 µM, first compound 0.01 µM): 95.9%
viability, T/C [19]: 102%
viability, T/C [20]: 100%
viability, T/C [21]: 98.1%
viability, T/C [22]: 64.2%
viability, T/C (second compound 3.16 µM, first compound 0.00316 µM): 91.8%
viability, T/C (second compound 3.16 µM, first compound 0.01 µM): 90.8%
viability, T/C [25]: 88.9%
viability, T/C [26]: 89.3%
viability, T/C [27]: 91.4%
viability, T/C [28]: 69.5%
viability, T/C (second compound 10 µM, first compound 0.00316 µM): 93.9%
viability, T/C (second compound 10 µM, first compound 0.01 µM): 89.3%
viability, T/C [31]: 87.7%
viability, T/C [32]: 92.7%
viability, T/C [33]: 91.4%
viability, T/C [34]: 67.9%

COc1cc2cc(C(=O)CCC(=O)O)sc2cc1OC + Cc1cccc(N(C)C(=O)C2C(O)CCN2c2nc(C)cc(C(F)(F)F)c2C#N)c1
IC50 (second compound 0.0316 µM): > 10 µM
IC50 (second compound 0.1 µM): > 10 µM
IC50 (second compound 0.316 µM): > 10 µM
IC50 (second compound 1 µM): > 10 µM
IC50 (second compound 3.16 µM): > 10 µM
IC50 (second compound 10 µM): > 10 µM
viability, T/C [1]: 100%
viability, T/C [2]: 106%
viability, T/C [3]: 96.5%
viability, T/C [4]: 99.5%
viability, T/C [5]: 105%
viability, T/C [6]: 92%
viability, T/C [7]: 111%
viability, T/C [8]: 97.1%
viability, T/C [9]: 98.2%
viability, T/C [10]: 95.3%
viability, T/C [11]: 111%
viability, T/C [12]: 88.3%
viability, T/C [13]: 112%
viability, T/C [14]: 106%
viability, T/C [15]: 106%
viability, T/C [16]: 108%
viability, T/C [17]: 114%
viability, T/C [18]: 100%
viability, T/C [19]: 108%
viability, T/C [20]: 101%
viability, T/C [21]: 108%
viability, T/C [22]: 98.9%
viability, T/C [23]: 103%
viability, T/C [24]: 88.8%
viability, T/C [25]: 96.7%
viability, T/C [26]: 98.3%
viability, T/C [27]: 102%
viability, T/C [28]: 101%
viability, T/C [29]: 97.9%
viability, T/C [30]: 95.4%
viability, T/C [31]: 94.3%
viability, T/C [32]: 82.2%
viability, T/C [33]: 101%
viability, T/C [34]: 89.5%
viability, T/C [35]: 99.4%
viability, T/C [36]: 90.9%

— PubChem BioAssay AID1963840 (Molecular Pharmacology Branch, DTP, NCI, 2024)
